Measurements as given in patent US20200131196A1 (Mount Tam Therapeutics, Inc., priority 2017, published 2020).
Read-outs that look alike come from different tables or passages of the source.

What was measured:
SK-NEP-1 = test: OncoPanel cell proliferation assay, SK-NEP-1
Procedure: Cells were seeded into 384-well plates and incubated in a humidified atmosphere of 5% CO2 at 37° C. Compounds were added the day following cell seeding. At the same time, a time zero untreated cell plate was generated. After a 3-day incubation period, cells were fixed and stained to allow fluorescence imaging of nuclei. Compounds (1 mM stock solutions) were serially diluted in half-log steps from the highest test concentration (1 micromol), and assayed over 10 concentrations with a maximum assay concentration of 0.1% DMSO. Automated fluorescence microscopy was carried out using a Molecular Devices ImageXpress Micro XL high-content imager, and images were collected with a 4× objective. 16-bit TIFF images were acquired and analyzed with MetaXpress 5.1.0.41 software.

SCaBER = test: OncoPanel cell proliferation assay, SCaBER; type: cell-based, human
Procedure: (§1) Cells were grown in RPMI 1640, 10% FBS, 2 mM L-alanyl-L-glutamine, 1 mM Na pyruvate, or a special medium. Cells were seeded into 384-well plates and incubated in a humidified atmosphere of 5% CO2 at 37° C. Compounds were added the day following cell seeding. At the same time, a time zero untreated cell plate was generated. After a 3-day incubation period, cells were fixed and stained to allow fluorescence imaging of nuclei. Compounds (1 mM stock solutions) were serially diluted in half-log steps from the highest test concentration ([…]), and assayed over 10 concentrations with a maximum assay concentration of 0.1% DMSO. Automated fluorescence microscopy was carried out using a Molecular Devices ImageXpress Micro XL high-content imager, and images were collected with a 4× objective. 16-bit TIFF images were acquired and analyzed with MetaXpress 5.1.0.41 software.
(§2) Cell proliferation was measured by the fluorescence intensity of an incorporated nuclear dye. The output is referred to as the relative cell count, where the measured nuclear intensity is transformed to percent of control (POC) using the following formula: […]
(§3) Cellular response parameters were calculated using nonlinear regression to a sigmoidal single-site dose response model:
(§4) EC50 is the test compound concentration at the curve inflection point or half the effective response (parameter C of the fitted curve solution). GI50 is the concentration needed to reduce the observed growth by half (midway between the curve maximum and the time zero value). “Cell Count Activity Area” is an estimate of the integrated area above the curve (Barretina, et al. The Cancer Cell Line Encyclopedia enables predictive modelling of anticancer drug sensitivity. Nature 483: 603-607). […] In rare instances, values <0 or >10 may be observed. […] Curve-fitting, calculations, and report generation was performed using a custom data reduction engine and MathIQ based software (AIM).

CML-T1 = test: OncoPanel cell proliferation assay, CML-T1; type: cell-based, human
Procedure: as §1, §2, §3, §4

DMS114 = test: OncoPanel cell proliferation assay, DMS114; type: cell-based, human
Procedure: as §1, with “Cells” for “Cells were grown in RPMI 1640, 10% FBS, 2 mM L-alanyl-L-glutamine, 1 mM Na pyruvate, or a special medium. Cells”
as §2, §3
GI50 is the concentration needed to reduce the observed growth by half (midway between the curve maximum and the time zero value). […] In rare instances, values <0 or >10 may be observed. […] Curve-fitting, calculations, and report generation was performed using a custom data reduction engine and MathIQ based software (AIM).

CRO-AP2 = test: OncoPanel cell proliferation assay, CRO-AP2; type: cell-based, human
Procedure: as §1, §2, §3, §4

Hs 729 = test: OncoPanel cell proliferation assay, Hs 729; type: cell-based, human
Procedure: as §1, §2, §3, §4

[1] = Homo sapiens, read-out: Cell Count EC50
[2] = Homo sapiens, read-out: Cell Count GI50
[3] = Homo sapiens, read-out: Cell Count IC50

Structure (SMILES): CO[C@H]1C[C@@H]2CC[C@@H](C)[C@@](O)(O2)C(=O)C(=O)N2CCCC[C@H]2C(=O)O[C@H]([C@H](C)C[C@H]2C[C@H]3C[C@@H]2C[C@@H]3O)CC(=O)[C@H](C)/C=C(\C)[C@@H](O)[C@@H](OC)C(=O)[C@H](C)C[C@H](C)/C=C/C=C/C=C/1C [Formula II, C37-[(1R,2S,4R,5S)-5-hyhroxybicyclo[2.2.1]heptane] rapamycin]
- EC50 (SK-NEP-1; Homo sapiens, SK-NEP-1, read-out: Cell Count EC50): 2.48 nM
- GI50 (SK-NEP-1; Homo sapiens, SK-NEP-1, read-out: Cell Count GI50): 3.27 nM
- IC50 (SK-NEP-1; Homo sapiens, SK-NEP-1, read-out: Cell Count IC50): 18.1 nM
- Cell Count Activity Area (SK-NEP-1; SK-NEP-1): 3.36
- Relative cell count (%) Mean (SK-NEP-1; SK-NEP-1, 1.00E+00 microM): 41.8%
- Relative cell count (%) Mean (SK-NEP-1; SK-NEP-1, 1.00E-01 microM): 45.4%
- Relative cell count (%) Mean (SK-NEP-1; SK-NEP-1, 1.00E-02 microM): 59.8%
- Relative cell count (%) Mean (SK-NEP-1; SK-NEP-1, 1.00E-03 microM): 86.5%
- Relative cell count (%) Mean (SK-NEP-1; SK-NEP-1, 1.01E-04 microM): 106.4%
- Relative cell count (%) Mean (SK-NEP-1; SK-NEP-1, 3.16E-01 microM): 44.3%
- Relative cell count (%) Mean (SK-NEP-1; SK-NEP-1, 3.17E-02 microM): 49.3%
- Relative cell count (%) Mean (SK-NEP-1; SK-NEP-1, 3.17E-03 microM): 67.1%
- Relative cell count (%) Mean (SK-NEP-1; SK-NEP-1, 3.18E-04 microM): 94.6%
- Relative cell count (%) Mean (SK-NEP-1; SK-NEP-1, 3.18E-05 microM): 99.0%
- Cell Count Activity Area (SCaBER): 4.82
- Relative cell count (%) Mean (SCaBER; 1.00E+00 microM): 32.7%
- Relative cell count (%) Mean (SCaBER; 1.00E-01 microM): 44.5%
- Relative cell count (%) Mean (SCaBER; 1.00E-02 microM): 42.2%
- Relative cell count (%) Mean (SCaBER; 1.00E-03 microM): 56.1%
- Relative cell count (%) Mean (SCaBER; 1.01E-04 microM): 83.1%
- Relative cell count (%) Mean (SCaBER; 3.16E-01 microM): 36.3%
- Relative cell count (%) Mean (SCaBER; 3.17E-02 microM): 39.5%
- Relative cell count (%) Mean (SCaBER; 3.17E-03 microM): 50.7%
- Relative cell count (%) Mean (SCaBER; 3.18E-04 microM): 63.5%
- Relative cell count (%) Mean (SCaBER; 3.18E-05 microM): 93.1%
- EC50 (SCaBER; Homo sapiens, Bladder, summary Table 5, read-out: EC50): 0.25 nM
- EC50 (SCaBER; [1]): 0.25 nM
- GI50 (SCaBER; [2]): 0.872 nM
- IC50 (SCaBER; [3]): 1.59 nM
- Cell Count Activity Area (CML-T1): 3.68
- Relative cell count (%) Mean (CML-T1; 1.00E+00 microM): 44.0%
- Relative cell count (%) Mean (CML-T1; 1.00E-01 microM): 46.4%
- Relative cell count (%) Mean (CML-T1; 1.00E-02 microM): 54.5%
- Relative cell count (%) Mean (CML-T1; 1.00E-03 microM): 67.7%
- Relative cell count (%) Mean (CML-T1; 1.01E-04 microM): 96.1%
- Relative cell count (%) Mean (CML-T1; 3.16E-01 microM): 42.4%
- Relative cell count (%) Mean (CML-T1; 3.17E-02 microM): 46.2%
- Relative cell count (%) Mean (CML-T1; 3.17E-03 microM): 59.5%
- Relative cell count (%) Mean (CML-T1; 3.18E-04 microM): 78.8%
- Relative cell count (%) Mean (CML-T1; 3.18E-05 microM): 96.6%
- EC50 (CML-T1; [1]): 0.821 nM
- GI50 (CML-T1; [2]): 3.64 nM
- IC50 (CML-T1; [3]): 12.5 nM
- Cell Count Activity Area (DMS114): 3.40
- Relative cell count (%) Mean (DMS114; 1.00E+00 microM): 43.1%
- Relative cell count (%) Mean (DMS114; 1.00E-01 microM): 50.1%
- Relative cell count (%) Mean (DMS114; 1.00E-02 microM): 62.2%
- Relative cell count (%) Mean (DMS114; 1.00E-03 microM): 74.7%
- Relative cell count (%) Mean (DMS114; 1.01E-04 microM): 102.9%
- Relative cell count (%) Mean (DMS114; 3.16E-01 microM): 46.7%
- Relative cell count (%) Mean (DMS114; 3.17E-02 microM): 52.5%
- Relative cell count (%) Mean (DMS114; 3.17E-03 microM): 63.9%
- Relative cell count (%) Mean (DMS114; 3.18E-04 microM): 83.4%
- Relative cell count (%) Mean (DMS114; 3.18E-05 microM): 99.7%
- EC50 (DMS114; Homo sapiens, DMS-114, read-out: Cell Count EC50): 1.34 nM
- GI50 (DMS114; Homo sapiens, DMS-114, read-out: Cell Count GI50): 0.611 nM
- IC50 (DMS114; Homo sapiens, DMS-114, read-out: Cell Count IC50): 33.1 nM
- Cell Count Activity Area (CRO-AP2): 4.89
- Relative cell count (%) Mean (CRO-AP2; 1.00E+00 microM): 24.8%
- Relative cell count (%) Mean (CRO-AP2; 1.00E-01 microM): 27.5%
- Relative cell count (%) Mean (CRO-AP2; 1.00E-02 microM): 34.9%
- Relative cell count (%) Mean (CRO-AP2; 1.00E-03 microM): 65.3%
- Relative cell count (%) Mean (CRO-AP2; 1.01E-04 microM): 100.6%
- Relative cell count (%) Mean (CRO-AP2; 3.16E-01 microM): 24.7%
- Relative cell count (%) Mean (CRO-AP2; 3.17E-02 microM): 27.0%
- Relative cell count (%) Mean (CRO-AP2; 3.17E-03 microM): 47.3%
- Relative cell count (%) Mean (CRO-AP2; 3.18E-04 microM): 81.8%
- Relative cell count (%) Mean (CRO-AP2; 3.18E-05 microM): 98.0%
- EC50 (CRO-AP2; [1]): 1.07 nM
- GI50 (CRO-AP2; [2]): 1.65 nM
- IC50 (CRO-AP2; [3]): 2.21 nM
- Cell Count Activity Area (Hs 729): 0.91
- Relative cell count (%) Mean (Hs 729; 1.00E+00 microM): 73.3%
- Relative cell count (%) Mean (Hs 729; 1.00E-01 microM): 81.0%
- Relative cell count (%) Mean (Hs 729; 1.00E-02 microM): 91.1%
- Relative cell count (%) Mean (Hs 729; 1.00E-03 microM): 97.1%
- Relative cell count (%) Mean (Hs 729; 1.01E-04 microM): 105.0%
- Relative cell count (%) Mean (Hs 729; 3.16E-01 microM): 74.8%
- Relative cell count (%) Mean (Hs 729; 3.17E-02 microM): 79.3%
- Relative cell count (%) Mean (Hs 729; 3.17E-03 microM): 98.0%
- Relative cell count (%) Mean (Hs 729; 3.18E-04 microM): 93.3%
- Relative cell count (%) Mean (Hs 729; 3.18E-05 microM): 93.2%
- EC50 (Hs 729; [1]): > 1000 nM
- GI50 (Hs 729; [2]): 101 nM
- IC50 (Hs 729; [3]): > 1000 nM
